The test system of one assay is U87MG tumour cells. The assay can be described thus: Test of in vitro proliferation of U87MG tumour cells. The assay is classed as cell-based. As to conditions: Homo sapiens, U-87 MG, 72 h, U87MG cells, 72 hours; read-out: U87 Cell Proliferation IC50. The protocol: Model 4: Test of in vitro Proliferation of U87MG Tumour Cells.
The cell growth is determined with the reagent CellTiter 96 AQueous One Solution Cell Proliferation Assay from Promega (Cat. No. G3581).

The target in a further assay is PI3Kα (p110α/p85α) (Homo sapiens (Human), UniProt P42336). The assay can be described thus: PI3Kα enzymatic test by measuring the consumption of ATP. The assay is classed as biochemical. A digest of the protocol:
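ATP consumption read out by KinaseGlo luminescence after a 90 min reaction of 1.7 μg/ml PI3Kα (p110α/p85α) with 2 μM ATP and 50 μM PIP2, buffered at pH 7.5 (Tris, 10 mM MgCl2, 1 mM EGTA, 0.03% Chaps, 1 mM DTT). Threefold dilution series over ≥10 000-fold range yield IC50.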

Assay [1] deals with mTOR (human recombinant aa mTOR 1360-2549) (Homo sapiens (Human), UniProt P42345). The assay can be described thus: mTOR enzymatic test by TR-FRET (phosphorylation of GFP-4EBP1). The assay is classed as biochemical. A digest of the protocol: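 After a 30 min room-temperature kinase reaction, EDTA (10 mM final) and Tb-labelled phospho-Thr46 antibody (2 nM final) were added and incubated 60 min. Energy transfer from Tb to phosphorylated GFP-4EBP1 was read at 340 nm excitation, emissions 490/520 nm. Values derive from the 520/490 fluorescence ratio.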

Setting [2] is: Homo sapiens, U-87 MG, read-out: U87 Akt-pS473 % Inhibition or IC50, nM (IC50), U87MG cells.

Read-outs that look alike come from different tables or passages of the source.

mTOR (human recombinant aa mTOR 1360-2549), sequence (P42345 1360-2549): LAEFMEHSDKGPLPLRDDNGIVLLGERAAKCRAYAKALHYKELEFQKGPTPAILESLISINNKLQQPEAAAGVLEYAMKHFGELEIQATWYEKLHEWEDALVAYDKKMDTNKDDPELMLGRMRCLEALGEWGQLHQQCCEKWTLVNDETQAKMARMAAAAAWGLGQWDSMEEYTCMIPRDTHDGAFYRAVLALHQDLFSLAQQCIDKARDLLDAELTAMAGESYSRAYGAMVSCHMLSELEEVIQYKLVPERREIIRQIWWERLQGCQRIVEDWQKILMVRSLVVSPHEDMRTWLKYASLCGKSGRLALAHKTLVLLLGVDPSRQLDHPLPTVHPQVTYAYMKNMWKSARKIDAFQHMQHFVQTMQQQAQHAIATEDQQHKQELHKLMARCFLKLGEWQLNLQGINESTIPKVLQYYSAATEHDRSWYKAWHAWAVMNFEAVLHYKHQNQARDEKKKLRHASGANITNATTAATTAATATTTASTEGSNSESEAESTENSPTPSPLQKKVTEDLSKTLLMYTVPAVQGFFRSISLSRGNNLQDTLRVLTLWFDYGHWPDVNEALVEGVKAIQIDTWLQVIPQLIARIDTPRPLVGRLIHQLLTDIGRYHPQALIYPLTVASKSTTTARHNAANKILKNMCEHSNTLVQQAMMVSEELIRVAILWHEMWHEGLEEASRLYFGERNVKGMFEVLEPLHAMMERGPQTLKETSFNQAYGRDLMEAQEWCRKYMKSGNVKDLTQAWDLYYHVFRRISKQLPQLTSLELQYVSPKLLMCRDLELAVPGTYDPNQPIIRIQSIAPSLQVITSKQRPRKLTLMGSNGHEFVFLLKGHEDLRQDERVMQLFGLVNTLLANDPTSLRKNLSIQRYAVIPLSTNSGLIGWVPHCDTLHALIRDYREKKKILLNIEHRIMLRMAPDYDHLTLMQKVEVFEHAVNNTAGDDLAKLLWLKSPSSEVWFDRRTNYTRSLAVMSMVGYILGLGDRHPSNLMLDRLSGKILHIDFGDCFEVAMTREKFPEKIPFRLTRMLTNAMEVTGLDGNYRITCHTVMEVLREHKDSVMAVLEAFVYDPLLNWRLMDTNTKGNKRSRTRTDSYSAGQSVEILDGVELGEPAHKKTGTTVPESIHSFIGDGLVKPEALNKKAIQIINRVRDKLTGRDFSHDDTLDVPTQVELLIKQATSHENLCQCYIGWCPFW
PI3Kα (p110α/p85α), sequence (P42336 whole entry): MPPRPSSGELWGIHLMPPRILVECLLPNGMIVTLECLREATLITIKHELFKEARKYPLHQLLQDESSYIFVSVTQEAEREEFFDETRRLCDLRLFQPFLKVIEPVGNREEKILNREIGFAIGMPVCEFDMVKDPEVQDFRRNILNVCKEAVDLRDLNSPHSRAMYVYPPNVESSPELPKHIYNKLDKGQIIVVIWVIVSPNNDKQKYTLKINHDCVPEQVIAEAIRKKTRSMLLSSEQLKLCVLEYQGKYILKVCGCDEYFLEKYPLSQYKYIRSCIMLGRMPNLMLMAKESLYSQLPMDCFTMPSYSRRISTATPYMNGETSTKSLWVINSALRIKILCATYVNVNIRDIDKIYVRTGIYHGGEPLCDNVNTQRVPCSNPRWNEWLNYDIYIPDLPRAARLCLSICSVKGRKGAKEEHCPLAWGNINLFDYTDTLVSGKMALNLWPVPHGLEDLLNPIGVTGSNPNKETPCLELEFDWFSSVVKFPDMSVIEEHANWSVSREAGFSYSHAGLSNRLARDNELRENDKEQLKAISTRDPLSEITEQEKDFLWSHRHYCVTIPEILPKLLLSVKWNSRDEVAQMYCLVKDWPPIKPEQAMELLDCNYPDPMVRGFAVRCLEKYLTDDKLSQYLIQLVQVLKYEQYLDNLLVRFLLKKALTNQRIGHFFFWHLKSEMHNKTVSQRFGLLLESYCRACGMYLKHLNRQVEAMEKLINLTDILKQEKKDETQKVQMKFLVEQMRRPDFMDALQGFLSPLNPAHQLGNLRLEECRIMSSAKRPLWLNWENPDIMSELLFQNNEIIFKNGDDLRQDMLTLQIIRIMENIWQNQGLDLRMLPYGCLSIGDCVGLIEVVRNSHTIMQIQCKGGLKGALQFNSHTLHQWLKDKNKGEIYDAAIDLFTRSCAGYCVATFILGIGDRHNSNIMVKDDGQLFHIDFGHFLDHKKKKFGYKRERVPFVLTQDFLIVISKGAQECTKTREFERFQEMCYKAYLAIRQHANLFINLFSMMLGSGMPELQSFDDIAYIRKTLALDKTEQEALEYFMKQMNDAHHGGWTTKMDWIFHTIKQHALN
PI3Kα (p110α/p85α), sequence (P27986 whole entry partner): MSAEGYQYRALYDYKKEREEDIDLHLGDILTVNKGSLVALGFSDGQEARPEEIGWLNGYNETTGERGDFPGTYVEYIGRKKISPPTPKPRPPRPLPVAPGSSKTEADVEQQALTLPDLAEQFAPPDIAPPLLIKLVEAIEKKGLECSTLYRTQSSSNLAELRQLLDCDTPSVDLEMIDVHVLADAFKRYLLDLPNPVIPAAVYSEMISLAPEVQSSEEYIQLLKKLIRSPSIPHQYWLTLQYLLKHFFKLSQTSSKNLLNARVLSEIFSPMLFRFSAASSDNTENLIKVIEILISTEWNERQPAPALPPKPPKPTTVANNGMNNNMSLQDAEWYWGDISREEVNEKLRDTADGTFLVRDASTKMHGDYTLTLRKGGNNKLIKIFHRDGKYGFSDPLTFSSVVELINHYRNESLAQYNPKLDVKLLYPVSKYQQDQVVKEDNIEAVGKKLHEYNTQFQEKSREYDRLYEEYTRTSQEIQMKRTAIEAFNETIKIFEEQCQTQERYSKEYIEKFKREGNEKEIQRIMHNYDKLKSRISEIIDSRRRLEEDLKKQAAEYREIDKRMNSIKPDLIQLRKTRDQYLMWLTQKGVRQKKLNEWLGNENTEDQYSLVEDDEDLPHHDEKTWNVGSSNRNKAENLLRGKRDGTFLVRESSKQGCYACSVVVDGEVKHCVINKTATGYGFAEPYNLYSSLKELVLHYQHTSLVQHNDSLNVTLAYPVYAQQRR

As to `CCN1CC(C)(C)Oc2nc(N3C4CCC3COC4)nc(-c3ccc(NC(=O)Nc4cc(OC)ccn4)cc3F)c2C1=O` [Example 89, 1-{4-[6-Ethyl-8,8-dimethyl-2-(3-oxa-8-azabicyclo[3.2.1]oct-8-yl)-5-oxo-5,6,7,8-tetrahydro-9-oxa-1,3,6-triazabenzocyclohepten-4-yl]-3-fluorophenyl}-3-(4-methoxypyridin-2-yl)urea], the figures for the IC50 (with U87MG tumour cells; in the assay on Akt-pS473 in U87MG cells (setting [2]); in assay [1]) were 221 nM, 260 nM and 84 nM, respectively. Moreover, the “PI3Ka IC50” value at PI3Kα (p110α/p85α) is more than 10000 nM.

`CCNC(=O)Nc1ccc(-c2nc(N3CC4CCC(C3)O4)nc3c2C(=O)N(CC)CC(C)(C)CO3)cc1` [Example 10, 1-Ethyl-3-{4-[6-ethyl-8,8-dimethyl-2-(8-oxa-3-azabicyclo[3.2.1]oct-3-yl)-5-oxo-6,7,8,9-tetrahydro-5H-10-oxa-1,3,6-triazabenzocycloocten-4-yl]phenyl}urea]: the IC50 was found to be 8770 nM with U87MG tumour cells, 611 nM with Akt-pS473 in U87MG cells (setting [2]) and 344 nM in assay [1]. In addition, on PI3Kα (p110α/p85α), the “PI3Ka IC50” value is given as more than 10000 nM.

As to `CCN1CC(C)(C)Oc2nc(N3[C@@H]4CC[C@H]3COC4)nc(-c3ccc(NC(=O)Nc4ccncc4F)cc3)c2C1=O` [Example 75, 1-[4-((1S,5R)-6-Ethyl-8,8-dimethyl-2-3-oxa-8-azabicyclo[3.2.1]oct-8-yl-5-oxo-5,6,7,8-tetrahydro-9-oxa-1,3,6-triazabenzocyclohepten-4-yl)phenyl]-3-(3-fluoropyridin-4-yl)urea], the IC50 in the assay on U87MG tumour cells came out at 47 nM; with Akt-pS473 in U87MG cells (setting [2]), 8 nM; in assay [1], 40 nM. For the same compound, the “PI3Ka IC50” value on PI3Kα (p110α/p85α) is recorded as 5570 nM.

Take `CCN1CC(C)(C)Oc2nc(N3C4CCC3COC4)nc(-c3ccc(NC(=O)NC4CC4)c(F)c3)c2C1=O` [Example 254, 1-Cyclopropyl-3-{4-[6-ethyl-8,8-dimethyl-2-(3-oxa-8-azabicyclo[3.2.1]oct-8-yl)-5-oxo-5,6,7,8-tetrahydro-9-oxa-1,3,6-triazabenzocyclohepten-4-yl]-2-fluorophenyl}urea]: the IC50 in the assay on U87MG tumour cells worked out at 240 nM; in the assay on Akt-pS473 in U87MG cells (setting [2]) it was 68 nM; in assay [1], 68 nM. Also, at PI3Kα (p110α/p85α), the “PI3Ka IC50” value is on record as more than 10000 nM.

Turning to `CCN1CC(C)(C)Oc2nc(N3CC4CCC(C3)O4)nc(-c3ccc(NC(=O)Nc4ccc(OC)nc4)c(F)c3)c2C1=O` [Example 124, 1-{4-[6-Ethyl-8,8-dimethyl-2-(8-oxa-3-azabicyclo[3.2.1]oct-3-yl)-5-oxo-5,6,7,8-tetrahydro-9-oxa-1,3,6-triazabenzocyclohepten-4-yl]-2-fluorophenyl}-3-(6-methoxypyridin-3-yl)urea], the IC50 in the assay on U87MG tumour cells is 115 nM; in the assay with Akt-pS473 in U87MG cells (read-out: U87 Akt-pS473 % Inhibition or IC50, nM (IC50), U87MG cells), 61 nM; in assay [1], 20 nM. In addition, the “PI3Ka IC50” value at PI3Kα (p110α/p85α) was more than 10000 nM.

For the compound `CCN1CC(C)(C)Oc2nc(N3CCOC[C@@H]3C)nc(-c3ccc(NC(=O)Nc4cn(C)cn4)c(F)c3)c2C1=O` [Example 182, 1-{4-[6-Ethyl-8,8-dimethyl-2-((S)-3-methylmorpholin-4-yl)-5-oxo-5,6,7,8-tetrahydro-9-oxa-1,3,6-triazabenzocyclohepten-4-yl]-2-fluorophenyl}-3-(1-methyl-1H-imidazol-4-yl)urea], the IC50 in the assay on U87MG tumour cells is 2930 nM; in the assay with Akt-pS473 in U87MG cells (setting [2]) it was 407 nM; in assay [1], 26 nM. The “PI3Ka IC50” value on PI3Kα (p110α/p85α) was determined as 159 nM.

Regarding `CCN1CC(C)(C)Oc2nc(N3CC4CCC(C3)O4)nc(-c3ccc(NC(=O)NC4CC4)c(F)c3)c2C1=O` [Example 133, 1-Cyclopropyl-3-{4-[6-ethyl-8,8-dimethyl-2-(8-oxa-3-azabicyclo[3.2.1]oct-3-yl)-5-oxo-5,6,7,8-tetrahydro-9-oxa-1,3,6-triazabenzocyclohepten-4-yl]-2-fluorophenyl}urea], the results for the IC50 (with U87MG tumour cells; with Akt-pS473 in U87MG cells (setting [2]); in assay [1]) were 219 nM, 92 nM and 33 nM, respectively. Also, the “PI3Ka IC50” value on PI3Kα (p110α/p85α) is reported as more than 10000 nM.

For `CCN1CC(C)(C)Oc2nc(N3CCOC[C@@H]3C)nc(-c3ccc(NC(=O)NCC(F)(F)F)c(F)c3)c2C1=O` [Example 149, 1-{4-[6-Ethyl-8,8-dimethyl-2-((S)-3-methylmorpholin-4-yl)-5-oxo-5,6,7,8-tetrahydro-9-oxa-1,3,6-triazabenzocyclohepten-4-yl]-2-fluorophenyl}-3-(2,2,2-trifluoroethyl)urea], the results for the IC50 (in the assay with U87MG tumour cells; with Akt-pS473 in U87MG cells (setting [2]); in assay [1]) were 854 nM, 154 nM and 113 nM, respectively. In addition, the “PI3Ka IC50” value on PI3Kα (p110α/p85α) is recorded as more than 10000 nM.

For the compound `CCN1CC(C)(C)Oc2nc(N3CCOC[C@@H]3C)nc(-c3ccc(NC(=O)Nc4cc(OC)ccc4F)cc3)c2C1=O` [Example 213, 1-{4-[6-Ethyl-8,8-dimethyl-2-((S)-3-methylmorpholin-4-yl)-5-oxo-5,6,7,8-tetrahydro-9-oxa-1,3,6-triazabenzocyclohepten-4-yl]phenyl}-3-(2-fluoro-5-methoxyphenyl)urea], the IC50 in the assay with U87MG tumour cells was 103 nM; with Akt-pS473 in U87MG cells (setting [2]), 20 nM; in assay [1], 48 nM. Further, the “PI3Ka IC50” value on PI3Kα (p110α/p85α) amounted to 991 nM.

`CCN1CC(C)(C)Oc2nc(N3C4CCC3COC4)nc(-c3ccc(NC(=O)Nc4cc(C)nc(C)c4)c(F)c3)c2C1=O` [Example 241, 1-(2,6-Dimethylpyridin-4-yl)-3-{4-[6-ethyl-8,8-dimethyl-2-(3-oxa-8-azabicyclo[3.2.1]oct-8-yl)-5-oxo-5,6,7,8-tetrahydro-9-oxa-1,3,6-triazabenzocyclohepten-4-yl]-2-fluorophenyl}urea]: the IC50 in the assay on U87MG tumour cells was 59 nM; in the assay with Akt-pS473 in U87MG cells (setting [2]) it was 43 nM; in assay [1], 165 nM. For the same compound, at PI3Kα (p110α/p85α), the “PI3Ka IC50” value is more than 10000 nM.

On to `C[C@H]1COCCN1c1ccc(NC(=O)Nc2ccc(-c3nc(N4C5CCC4COC5)nc4c3C(=O)N(C)CC(C)(C)O4)cc2F)cn1` [Example 74, 1-{2-Fluoro-4-[6,8,8-trimethyl-2-(3-oxa-8-azabicyclo[3.2.1]oct-8-yl)-5-oxo-5,6,7,8-tetrahydro-9-oxa-1,3,6-triazabenzocyclohepten-4-yl]phenyl}-3-[6-((S)-3-methylmorpholin-4-yl)pyridin-3-yl]urea], for which the IC50 stood at 126 nM in the assay with U87MG tumour cells, 31 nM in the assay with Akt-pS473 in U87MG cells (setting [2]) and 64 nM in assay [1]. At PI3Kα (p110α/p85α), the “PI3Ka IC50” value is listed as more than 10000 nM.

On to `CCN1CC(C)(C)Oc2nc(N3CCOC[C@@H]3C)nc(-c3ccc(NC(=O)Nc4ccncc4)cc3F)c2C1=O` [Example 12, 1-{4-[6-ethyl-8,8-dimethyl-2-((S)-3-methylmorpholin-4-yl)-5-oxo-5,6,7,8-tetrahydro-9-oxa-1,3,6-triazabenzocyclohepten-4-yl]-3-fluorophenyl}-3-pyridin-4-ylurea], for which the IC50 in the assay with U87MG tumour cells is 121 nM; in the assay with Akt-pS473 in U87MG cells (setting [2]) it was 43 nM; in assay [1], 17 nM. Besides, the “PI3Ka IC50” value at PI3Kα (p110α/p85α) amounted to 640 nM.

As for `CCNC(=O)Nc1ccc(-c2nc(N3CC4CCC(C3)O4)nc3c2C(=O)N(C2CCN(C)CC2)CC(C)(C)O3)cc1` [Example 132, 1-{4-[8,8-Dimethyl-6-(1-methylpiperidin-4-yl)-2-(8-oxa-3-azabicyclo[3.2.1]oct-3-yl)-5-oxo-5,6,7,8-tetrahydro-9-oxa-1,3,6-triazabenzocyclohepten-4-yl]phenyl}-3-ethylurea], the IC50 was more than 10000 nM with U87MG tumour cells, more than 3000 nM in the assay on Akt-pS473 in U87MG cells (setting [2]) and 245 nM in assay [1]. Besides, the “PI3Ka IC50” value on PI3Kα (p110α/p85α) stood at 4320 nM.

Consider `CCN1CC(C)(C)Oc2nc(N3CC4CCC(C3)O4)nc(-c3ccc(NC(=O)Nc4ccc(OC5CCN(C)CC5)nc4)c(F)c3)c2C1=O` [Example 22, 1-{4-[6-ethyl-8,8-dimethyl-2-(8-oxa-3-azabicyclo[3.2.1]oct-3-yl)-5-oxo-5,6,7,8-tetrahydro-9-oxa-1,3,6-triazabenzocyclohepten-4-yl]-2-fluorophenyl}-3-[6-(1-methylpiperidin-4-yloxy)pyridin-3-yl]urea], for which the IC50 in the assay on U87MG tumour cells was 68 nM; in the assay on Akt-pS473 in U87MG cells (setting [2]), 28 nM; in assay [1] it was 76 nM. The “PI3Ka IC50” value on PI3Kα (p110α/p85α) was 3070 nM.

Consider `CCN1CC(C)(C)Oc2nc(N3CC4CCC(C3)O4)nc(-c3ccc(NC(=O)Nc4cccc(OC)c4)cc3)c2C1=O` [Example 127, 1-{4-[6-Ethyl-8,8-dimethyl-2-(8-oxa-3-azabicyclo[3.2.1]oct-3-yl)-5-oxo-5,6,7,8-tetrahydro-9-oxa-1,3,6-triazabenzocyclohepten-4-yl]phenyl}-3-(3-methoxyphenyl)urea], for which the IC50 with U87MG tumour cells came out at 79 nM; with Akt-pS473 in U87MG cells (setting [2]) it was 24 nM; in assay [1], 16 nM. Besides, the “PI3Ka IC50” value on PI3Kα (p110α/p85α) worked out at 3646 nM.

As for `CCN1CC(C)(C)Oc2nc(N3CCOC[C@@H]3C)nc(-c3ccc(NC(=O)Nc4ccncc4)c(F)c3)c2C1=O` [Example 231, 1-{4-[6-Ethyl-8,8-dimethyl-2-((S)-3-methylmorpholin-4-yl)-5-oxo-5,6,7,8-tetrahydro-9-oxa-1,3,6-triazabenzocyclohepten-4-yl]-2-fluorophenyl}-3-pyridin-4-ylurea], the IC50 in the assay on U87MG tumour cells was 29 nM; with Akt-pS473 in U87MG cells (setting [2]), 12 nM; in assay [1], 16 nM. Also, the “PI3Ka IC50” value on PI3Kα (p110α/p85α) is listed as 103 nM.

The values above are taken from patent US9120812B2, “Pyrimidooxazocine derivatives as mTOR-inhibitors” (SANOFI, priority 2012, dated 2015).
